Test results reported in patent US20260070945A1, “MACROCYCLIC IMMUNOMODULATORS” (Bristol-Myers Squibb Company, priority 2022, published 2026).
*1 amine or outer side, *2 acyl side, *3 side chain or, on linkers, in order; H or OH if unused. Where a SMILES comes first, the peptide text is derived from it. Bridges are numbered along the chain shown (N, C = ends). [ ]: non-standard residue; d: D form. The star is where a group is joined. Phe(4-CH2NH2) = NCc1ccc(C[C@H](N)C(=O)O)cc1; Bip = N[C@@H](Cc1ccc(-c2ccccc2)cc1)C(=O)O; Phe(3-Me) = Cc1cccc(C[C@H](N)C(=O)O)c1; Gly(decyl) = CCCCCCCCCC[C@H](N)C(=O)O; NH(CH2)8CO = O=C(CCCCCCCCN[*:1])[*:2]; Cha = N[C@@H](CC1CCCCC1)C(=O)O; 12Ado = NCCCCCCCCCCCC(=O)O; Carboxymethyl = O=C(O)C*; NMeA = CN[C@@H](C)C(=O)O; Orn = NCCC[C@H](N)C(=O)O; Aun = NCCCCCCCCCCC(=O)O; Dab = NCC[C@H](N)C(=O)O; AEEA = NCCOCCOCC(=O)O; Ac3c = NC1(C(=O)O)CC1; Aoc = NCCCCCCCC(=O)O

target: T1, PD-1/PD-L1 interaction (PE-labeled human PD-L1-Ig binding to Jurkat cell line over-expressing human PD-1) (Homo sapiens, UniProt Q15116); assay: Jurkat-PD-1 Cell Binding High-Content Screening Assay (CBA); conditions: PE-labeled PD-L1-Ig 20 nM final, Jurkat-hPD-1 cells; read-out: Jurkat HPD1 PDL1 IC50
T1 construct: expressed in transfected cells; host or cells: Jurkat
T1 sequence (Q15116 25-288): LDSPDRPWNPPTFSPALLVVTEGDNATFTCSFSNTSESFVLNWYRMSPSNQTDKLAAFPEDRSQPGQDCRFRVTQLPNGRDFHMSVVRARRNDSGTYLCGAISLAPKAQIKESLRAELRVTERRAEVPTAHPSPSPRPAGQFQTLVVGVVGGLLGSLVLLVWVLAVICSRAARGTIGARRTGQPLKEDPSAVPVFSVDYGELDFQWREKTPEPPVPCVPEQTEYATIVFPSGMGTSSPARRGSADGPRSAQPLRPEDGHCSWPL
Summary of the method: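 Read-out: high-content imaging of cell-bound PE fluorescence, with Hoechst 33342 nuclear counterstain after paraformaldehyde fixation. Before labeled ligand (20 nM final, 1 h) was added, compound sat on the cells for 2 h at 37 °C in DMEM/10% FCS.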

Row | Compound | IC50 [µM]
1 | Cc1cccc(C[C@@H]2NC(=O)[C@H](CC(=O)O)NC(=O)[C@H](Cc3ccc(OCC(=O)O)cc3)NC(=O)[C@H]([C@@H](C)O)NC(=O)CSC[C@@H](C(=O)N[C@@H](CCN)C(=O)NCCOCCOCC(=O)NCCCCCCCCCCCC(=O)O)NC(=O)[C@@H](CCC(=O)O)NC(=O)[C@H](C(C)C)NC(=O)[C@H](CC3CCCCC3)NC(=O)[C@H](CCN)NC(=O)[C@@H](CC(C)C)NC(=O)[C@H](C)N(C)C(=O)[C@H](Cc3ccc(OCC(=O)O)cc3)NC(=O)[C@H](Cc3ccc(-c4ccccc4)cc3)NC(=O)[C@H](Cc3ccc(OCC(=O)O)cc3)NC2=O)c1 [Example 2668] ({CH2CO}-TY(Carboxymethyl)D[Phe(3-Me)]Y(Carboxymethyl)[Bip]Y(Carboxymethyl)[NMeA][dL][Dab][Cha]V[dE]C[Dab][AEEA][12Ado]-OH; thioether N-14) | 0.0026
2 | Cc1cccc(C[C@@H]2NC(=O)[C@H](CC(=O)O)NC(=O)[C@H](Cc3ccc(OCC(=O)O)cc3)NC(=O)[C@H]([C@@H](C)O)NC(=O)CSC[C@@H](C(=O)N[C@@H](CCN)C(=O)NCCOCCOCC(=O)NCCCCCCCCCCCC(=O)O)NC(=O)[C@H](C)NC(=O)[C@H](C(C)C)NC(=O)[C@H](CC3CCCCC3)NC(=O)[C@H](CCN)NC(=O)[C@@H](CC(C)C)NC(=O)[C@H](C)N(C)C(=O)[C@H](Cc3ccc(OCC(=O)O)cc3)NC(=O)[C@H](Cc3ccc(-c4ccccc4)cc3)NC(=O)[C@H](Cc3ccc(OCC(=O)O)cc3)NC2=O)c1 [Example 2669] ({CH2CO}-TY(Carboxymethyl)D[Phe(3-Me)]Y(Carboxymethyl)[Bip]Y(Carboxymethyl)[NMeA][dL][Dab][Cha]VAC[Dab][AEEA][12Ado]-OH; thioether N-14) | 0.0024
3 | Cc1cccc(C[C@@H]2NC(=O)[C@H](CC(=O)O)NC(=O)[C@H](Cc3ccc(OCC(=O)O)cc3)NC(=O)[C@H]([C@@H](C)O)NC(=O)CSC[C@@H](C(=O)N[C@@H](CCN)C(=O)NCCOCCOCC(=O)NCCCCCCCCCCCC(=O)O)NC(=O)[C@@H](C)NC(=O)[C@H](C(C)C)NC(=O)[C@H](CC3CCCCC3)NC(=O)[C@H](CCN)NC(=O)[C@@H](CC(C)C)NC(=O)[C@H](C)N(C)C(=O)[C@H](Cc3ccc(OCC(=O)O)cc3)NC(=O)[C@H](Cc3ccc(-c4ccccc4)cc3)NC(=O)[C@H](Cc3ccc(OCC(=O)O)cc3)NC2=O)c1 [Example 2670] ({CH2CO}-TY(Carboxymethyl)D[Phe(3-Me)]Y(Carboxymethyl)[Bip]Y(Carboxymethyl)[NMeA][dL][Dab][Cha]V[dA]C[Dab][AEEA][12Ado]-OH; thioether N-14) | 0.0066
4 | Cc1cccc(C[C@@H]2NC(=O)[C@H](CC(=O)O)NC(=O)[C@H](Cc3ccc(CN)cc3)NC(=O)[C@H]([C@@H](C)O)NC(=O)CSC[C@@H](C(=O)N[C@@H](CCN)C(=O)NCCCCCCCCC(=O)NCCCCCCCCCCC(=O)O)NC(=O)[C@H](CCCN)NC(=O)[C@H](C(C)C)NC(=O)[C@H](CC3CCCCC3)NC(=O)[C@H](CCN)NC(=O)[C@@H](CC(C)C)NC(=O)[C@H](C)N(C)C(=O)[C@H](Cc3ccc(CN)cc3)NC(=O)[C@H](Cc3ccc(-c4ccccc4)cc3)NC(=O)[C@H](Cc3ccc(CN)cc3)NC2=O)c1 [Example 2671] ({CH2CO}-T[Phe(4-CH2NH2)]D[Phe(3-Me)][Phe(4-CH2NH2)][Bip][Phe(4-CH2NH2)][NMeA][dL][Dab][Cha]V[Orn]C[Dab][NH(CH2)8CO][Aun]-OH; thioether N-14) | 0.0301
5 | Cc1cccc(C[C@@H]2NC(=O)[C@H](CC(=O)O)NC(=O)[C@H](Cc3ccc(OCC(=O)O)cc3)NC(=O)[C@H]([C@@H](C)O)NC(=O)CSC[C@@H](C(=O)N[C@@H](CCN)C(=O)NCCOCCOCC(=O)NCCCCCCCCCCCC(=O)O)NC(=O)C3(CC3)NC(=O)[C@H](C(C)C)NC(=O)[C@H](CC3CCCCC3)NC(=O)[C@H](CCN)NC(=O)[C@@H](CC(C)C)NC(=O)[C@H](C)N(C)C(=O)[C@H](Cc3ccc(OCC(=O)O)cc3)NC(=O)[C@H](Cc3ccc(-c4ccccc4)cc3)NC(=O)[C@H](Cc3ccc(OCC(=O)O)cc3)NC2=O)c1 [Example 2672] ({CH2CO}-TY(Carboxymethyl)D[Phe(3-Me)]Y(Carboxymethyl)[Bip]Y(Carboxymethyl)[NMeA][dL][Dab][Cha]V[Ac3c]C[Dab][AEEA][12Ado]-OH; thioether N-14) | 0.2
6 | CCCCCCCCCC[C@@H]1NC(=O)[C@H](C(C)C)NC(=O)[C@H](CC2CCCCC2)NC(=O)[C@H](CCN)NC(=O)[C@@H](CC(C)C)NC(=O)[C@H](C)N(C)C(=O)[C@H](Cc2ccc(OCC(=O)O)cc2)NC(=O)[C@H](Cc2ccc(-c3ccccc3)cc2)NC(=O)[C@H](Cc2ccc(OCC(=O)O)cc2)NC(=O)[C@H](Cc2cccc(C)c2)NC(=O)[C@H](CC(=O)O)NC(=O)[C@H](Cc2ccc(OCC(=O)O)cc2)NC(=O)[C@H]([C@@H](C)O)NC(=O)CSC[C@@H](C(=O)N[C@@H](CCN)C(=O)NCCOCCOCC(=O)NCCCCCCCCCCCC(=O)O)NC1=O [Example 2673] ({CH2CO}-TY(Carboxymethyl)D[Phe(3-Me)]Y(Carboxymethyl)[Bip]Y(Carboxymethyl)[NMeA][dL][Dab][Cha]V[Gly(decyl)]C[Dab][AEEA][12Ado]-OH; thioether N-14) | 0.0903
7 | Cc1cccc(C[C@@H]2NC(=O)[C@H](CC(=O)O)NC(=O)[C@H](Cc3ccc(OCC(=O)O)cc3)NC(=O)[C@H]([C@@H](C)O)NC(=O)CSC[C@@H](C(=O)N[C@@H](CCN)C(=O)NCCOCCOCC(=O)NCCCCCCCCCCCC(=O)O)NC(=O)[C@H](Cc3ccc(-c4ccccc4)cc3)NC(=O)[C@H](C(C)C)NC(=O)[C@H](CC3CCCCC3)NC(=O)[C@H](CCN)NC(=O)[C@@H](CC(C)C)NC(=O)[C@H](C)N(C)C(=O)[C@H](Cc3ccc(OCC(=O)O)cc3)NC(=O)[C@H](Cc3ccc(-c4ccccc4)cc3)NC(=O)[C@H](Cc3ccc(OCC(=O)O)cc3)NC2=O)c1 [Example 2674] ({CH2CO}-TY(Carboxymethyl)D[Phe(3-Me)]Y(Carboxymethyl)[Bip]Y(Carboxymethyl)[NMeA][dL][Dab][Cha]V[Bip]C[Dab][AEEA][12Ado]-OH; thioether N-14) | 0.0213
8 | CC(=O)NCC[C@H](NC(=O)[C@@H]1CSCC(=O)N[C@@H]([C@@H](C)O)C(=O)N[C@@H](Cc2ccc(OCC(=O)O)cc2)C(=O)N[C@@H](CC(=O)O)C(=O)N[C@@H](Cc2cccc(C)c2)C(=O)N[C@@H](Cc2ccc(OCC(=O)O)cc2)C(=O)N[C@@H](Cc2ccc(-c3ccccc3)cc2)C(=O)N[C@@H](Cc2ccc(OCC(=O)O)cc2)C(=O)N(C)[C@@H](C)C(=O)N[C@H](CC(C)C)C(=O)N[C@@H](CCNC(C)=O)C(=O)N[C@@H](CC2CCCCC2)C(=O)N[C@@H](C(C)C)C(=O)N[C@@H](CCC(=O)O)C(=O)N1)C(=O)NCCCCCCCC(=O)NCCCCCCCCCCCC(=O)O [Example 2676] ({CH2CO}-TY(Carboxymethyl)D[Phe(3-Me)]Y(Carboxymethyl)[Bip]Y(Carboxymethyl)[NMeA][dL][Dab](Ac)[Cha]VEC[Dab](Ac)[Aoc][12Ado]-OH; thioether N-14) | 0.503
